From PubChem BioAssay (NCI)
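Compound exposure: 48 hours, 5 concentrations, 96-well plates. GI50 is the concentration that inhibits growth by half. TGI denotes the concentration required for complete inhibition of growth.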

How the values were obtained:
Assay in all cases: NCI-60 cell line screen, 48 h
[1] = system: SF-295 CNS
[2] = system: OVCAR-3 ovarian
[3] = system: SNB-75 CNS
[4] = system: IGROV1 ovarian
[5] = system: MOLT-4 leukemia
[6] = system: HL-60(TB) leukemia
[7] = system: NCI-H522 lung
[8] = system: U251 CNS
[9] = system: OVCAR-5 ovarian
[10] = system: T-47D breast
[11] = system: SK-MEL-2 melanoma
[12] = system: NCI-H23 lung
[13] = system: HS 578T breast
[14] = system: LOX IMVI melanoma
[15] = system: HOP-62 NSCLC
[16] = system: K-562 leukemia
[17] = system: SK-OV-3 ovarian
[18] = system: COLO 205 colon
[19] = system: HT29 colon
[20] = system: NCI-H226 lung
[21] = system: SR leukemia
[22] = system: OVCAR-8 ovarian
[23] = system: SK-MEL-5 melanoma
[24] = system: MALME-3M melanoma
[25] = system: PC-3 prostate
[26] = system: ACHN renal
[27] = system: A498 renal
[28] = system: 786-0 renal
[29] = system: SN12C renal
[30] = system: CAKI-1 renal
[31] = system: TK-10 renal
[32] = system: MDA-MB-435
[33] = system: DU-145 prostate
[34] = system: HCC-2998 colon
[35] = system: A549 NSCLC
[36] = system: SF-268 CNS
[37] = system: SW-620 colon
[38] = system: RPMI-8226 leukemia
[39] = system: SK-MEL-28 melanoma
[40] = system: KM12 colon
[41] = system: MCF7 breast
[42] = system: MDA-MB-231 breast
[43] = system: UACC-62 melanoma
[44] = system: OVCAR-4 ovarian
[45] = system: HOP-92 NSCLC
[46] = system: RXF 393 renal
[47] = system: UACC-257 melanoma
[48] = system: CCRF-CEM leukemia
[49] = system: HCT-15 colon
[50] = system: HCT-116 colon
[51] = system: NCI/ADR-RES ovarian
[52] = system: UO-31 renal
[53] = system: NCI-H460 lung
[54] = system: EKVX NSCLC
[55] = system: SF-539 CNS
[56] = system: BT-549 breast
[57] = system: M14 melanoma
[58] = system: SNB-19 CNS

## O=[N+]([O-])c1ccccc1/C=C/C=C1c2ccccc2-c2ccccc21
[1]
  GI50: > 100 µM
  TGI: > 100 µM
[2]
  GI50: > 100 µM
  TGI: > 100 µM
[3]
  GI50: > 100 µM
  TGI: > 100 µM
[4]
  GI50: > 100 µM
  TGI: > 100 µM
[5]
  GI50: > 100 µM
  TGI: > 100 µM
[6]
  GI50: > 100 µM
  TGI: > 100 µM
[7]
  GI50: > 100 µM
  TGI: > 100 µM
[8]
  GI50: > 100 µM
  TGI: > 100 µM
[9]
  GI50: > 100 µM
  TGI: > 100 µM
[10]
  GI50: > 100 µM
  TGI: > 100 µM
[11]
  GI50: > 100 µM
  TGI: > 100 µM
[12]
  GI50: > 100 µM
  TGI: > 100 µM
[13]
  GI50: > 100 µM
  TGI: > 100 µM
[14]
  GI50: > 100 µM
  TGI: > 100 µM
[15]
  GI50: > 100 µM
  TGI: > 100 µM
[16]
  GI50: > 100 µM
  TGI: > 100 µM
[17]
  GI50: > 100 µM
  TGI: > 100 µM
[18]
  GI50: > 100 µM
  TGI: > 100 µM
[19]
  GI50: > 100 µM
  TGI: > 100 µM
[20]
  GI50: > 100 µM
  TGI: > 100 µM
[21]
  GI50: > 100 µM
  TGI: > 100 µM
[22]
  GI50: > 100 µM
  TGI: > 100 µM
[23]
  GI50: > 100 µM
  TGI: > 100 µM
[24]
  GI50: > 100 µM
  TGI: > 100 µM
[25]
  GI50: > 100 µM
  TGI: > 100 µM
[26]
  GI50: > 100 µM
  TGI: > 100 µM
[27]
  GI50: > 100 µM
  TGI: > 100 µM
[28]
  GI50: > 100 µM
  TGI: > 100 µM
[29]
  GI50: > 100 µM
  TGI: > 100 µM
[30]
  GI50: > 100 µM
  TGI: > 100 µM
[31]
  GI50: > 100 µM
  TGI: > 100 µM
[32]
  GI50: 12.4 µM
  TGI: > 100 µM
[33]
  GI50: > 100 µM
  TGI: > 100 µM
[34]
  GI50: > 100 µM
  TGI: > 100 µM
[35]
  GI50: > 100 µM
  TGI: > 100 µM
[36]
  GI50: > 100 µM
  TGI: > 100 µM
[37]
  GI50: > 100 µM
  TGI: > 100 µM
[38]
  GI50: > 100 µM
  TGI: > 100 µM
[39]
  GI50: > 100 µM
  TGI: > 100 µM
[40]
  GI50: > 100 µM
  TGI: > 100 µM
[41]
  GI50: 31.5 µM
  TGI: > 100 µM
[42]
  GI50: > 100 µM
  TGI: > 100 µM
[43]
  GI50: > 100 µM
  TGI: > 100 µM
[44]
  GI50: > 100 µM
  TGI: > 100 µM
[45]
  GI50: > 100 µM
  TGI: > 100 µM
[46]
  GI50: > 100 µM
  TGI: > 100 µM
[47]
  GI50: > 100 µM
  TGI: > 100 µM
[48]
  GI50: > 100 µM
  TGI: > 100 µM
[49]
  GI50: > 100 µM
  TGI: > 100 µM
[50]
  GI50: > 100 µM
  TGI: > 100 µM
[51]
  GI50: > 100 µM
  TGI: > 100 µM
[52]
  GI50: > 100 µM
  TGI: > 100 µM
[53]
  GI50: > 100 µM
  TGI: > 100 µM
[54]
  GI50: > 100 µM
  TGI: > 100 µM
[55]
  GI50: > 100 µM
  TGI: > 100 µM
[56]
  GI50: > 100 µM
  TGI: > 100 µM
[57]
  GI50: > 100 µM
  TGI: > 100 µM
[58]
  GI50: > 100 µM
  TGI: > 100 µM
